From patent US11666594B2, “Antibody-drug conjugates comprising a cyclic dinucleotide” (TAKEDA PHARMACEUTICAL COMPANY LIMITED, priority 2016, dated 2023)
Counter-ions that a name gives are not always drawn. Like-named read-outs stand apart in the source and are kept apart here.

How the values were obtained:
[1] = Human plasma stability assay; format: in vitro ADME; details: elimination rate constant k; heparinized human plasma, 37° C., up to 24 hours
Description: The compound was incubated in heparinized human plasma at 37° C. for 0, 1, 2, 4, 8 and 24 hours, and the change in compound concentration was measured by LC/MS/MS method. The elimination rate constant (=k(/h)) was calculated based on the fitted curve assuming the exponential decrease of concentration as follows; concentration at time x=initial concentration*exp(−k*x).

WT STING = WT STING (Homo sapiens (Human), UniProt Q86WV6, H232R); experiment: Reporter gene assay (2): ISRE NanoLuc reporter in 293T cells, with digitonin, WT STING; format: cell-based; details: for EC50: with digitonin, read-out: STING-293T cell EC50 (μM) Reporter with digitonin (B); for activation at 30 µM: HEK-293T, read-out: activity level against WT STING of test compound (30 μM)
Description: The culture solution was removed, and the test compound diluted with assay buffer (50 mM HEPES pH 7.0, 100 mM KCl, 3 mM MgCl2, 85 mM Sucrose, 0.1 mM DTT, 0.2% BSA, 1 mM ATP, 0.1 mM GTP, 10 μg/ml Digitonin) was added thereto by 15 μL/well. […] Luminescence signals derived from firefly luciferase and NanoLuc Luciferase were each measured using EnVision (PerkinElmer, Waltham, Mass., US) according to Nano-Glo Dual-Luciferase Reporter Assay System (Promega, Fitchburg, Wis., US) protocol. The ratio of the count of NanoLuc Luciferase divided by the count of firefly luciferase was used for culculation.

B16F10 mouse tumor cells = experiment: Anti-tumor effect in B16F10 syngeneic mice model; format: in vivo; details: B16F10, C57BL/6 mice; intravenous, q3dx3; Ex3a 30 mg/kg, Ex14 1.0 mg/kg
Description: (§1) 8×10^4 B^16F10 and 2×10^5 CT-26 mouse tumor cells were subcutaneously implanted in the flank of female C57BL/6 (B16F10) and Balb/C (CT-26) mice (n=7 per group). Vehicle (1×PBS), compound Ex3a (30 mg/kg) or Ex14 (1.0 mg/kg) were intravenously administered (final volume of […]) to tumor-bearing mice once the tumor volume has reached 100 mm^3 (Day 0). Vehicle, Ex3a or Ex14 were given every 3 days for a total of 3 doses (q3dx3). Tumor and body weight measurements were taken three times per week using vernier calipers and mettler scale, respectively. Tumor volumes were determined by multiplying the square of the width (‘W’), measured along the […] of the tumor, by one-half the length (‘L’) measured along the […] of the tumor (V=W^2×0.5 L)

THP1-Dual cells = experiment: THP-1 Dual Lucia reporter gene assay; format: cell-based, human; details: 20 hours; read-out: THP-1 Dual cell EC50 (μM) Reporter
Description: THP1-Dual™ cells (InvivoGen #thpd-nfis) were derived from the human THP-1 monocyte cell line by stable integration of the Lucia luciferase gene, a secreted luciferase reporter gene, under the control of an ISG54 (interferon-stimulated gene) minimal promoter in conjunction with five interferon (IFN)-stimulated response elements. On the day of experiment, the cells were plated to a black, 384-well plate (Corning 356697) at 7500 cells/25 μL per well density in growth media (RPMI 1640, 2 mM L-glutamine, 25 mM HEPES, 10% heat-inactivated fetal bovine serum, 100 μg/mL Normocin™, 100 U/mL-100 μg/mL Pen-Strep, 10 μg/mL of blasticidin, and 100 μg/mL of Zeocin). The cell plates were dosed with 62.5 nL of the testing compounds, and then incubated at 37° C. for 20 hours. At the end of the incubation, 15 μL/well of the QUANTI-Luc™ (InvivoGen #rep-qlc1) were added, and luminescence was measured immediately using the LeadSeeker.

CT-26 mouse tumor cells = experiment: Anti-tumor effect in colon carcinoma CT-26 syngeneic mice model; format: in vivo; details: CT-26, Balb/C mice; intravenous, q3dx3; Ex3a 30 mg/kg, Ex14 1.0 mg/kg
Description: as §1

[2] = 30 μM, digitonin, 2′,3′-cGAMP (30 μM) = 100%

Chain of WT STING (Q86WV6 whole entry H232R): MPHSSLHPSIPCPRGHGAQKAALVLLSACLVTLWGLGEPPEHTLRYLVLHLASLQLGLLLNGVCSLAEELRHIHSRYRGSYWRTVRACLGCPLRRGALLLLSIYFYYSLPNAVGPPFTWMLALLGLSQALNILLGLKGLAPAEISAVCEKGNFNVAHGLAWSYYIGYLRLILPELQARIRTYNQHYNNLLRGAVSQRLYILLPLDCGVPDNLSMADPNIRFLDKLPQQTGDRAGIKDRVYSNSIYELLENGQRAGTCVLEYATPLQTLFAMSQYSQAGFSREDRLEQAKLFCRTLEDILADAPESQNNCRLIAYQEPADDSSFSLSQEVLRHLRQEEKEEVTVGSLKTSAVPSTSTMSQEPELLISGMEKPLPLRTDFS

Q: With `Nc1ncnc2c1ncn2[C@@H]1O[C@@H]2COP(=O)(O)O[C@@H]3[C@H](O)[C@@H](COP(=O)(S)O[C@H]2[C@H]1F)O[C@H]3n1cc(F)c2c(=O)[nH]cnc21` (stereo partly drawn) [Ex3a, disodium (5R,7R,8R,2aR,14R,15R,5aR,16R)-14-(6-amino-9H-purin-9-yl)-15-fluoro-7-(5-fluoro-4-oxo-3,4-dihydro-7H-pyrrolo[2,3-d]pyrimidin-7-yl)-16-hydroxy-2-sulfidooctahydro-12H-5,8-methanofuro[3,2-1][1,3,6,9,11,2,10]pentaoxadiphosphacyclotetradecin-10-olate 2,10-dioxide] as the compound, how does the “Human plasma stability” value [1] read?
A: The value was 0.58 h⁻¹.

Q: What about the EC50 (WT STING) of the same compound?
A: The EC50 was 0.13 µM.

Q: What about the anti-tumor effect (B16F10 mouse tumor cells) of the same compound?
A: The anti-tumor effect was “anti-tumor effects were observed”.

Q: What about the EC50 (THP1-Dual cells) of the same compound?
A: Its EC50 is 5.6 µM.

Q: And the anti-tumor effect (CT-26 mouse tumor cells)?
A: The anti-tumor effect was “anti-tumor effects were observed”.

Q: Which activation at 30 µM (WT STING; [2]) does the source give for `Nc1ncnc2c1ncn2[C@@H]1O[C@@H]2COP(=O)(O)O[C@@H]3[C@H](O)[C@@H](COP(=O)(O)O[C@H]2[C@H]1F)O[C@H]3n1cc(F)c2c(=O)[nH]cnc21` [Example 1, 7-((5R,7R,8R,12aR,14R,15R,15aR,16R)-14-(6-amino-9H-purin-9-yl)-15-fluoro-2,10,16-trihydroxy-2,10-dioxidooctahydro-12H-5,8-methanofuro[3,2-1][1,3,6,9,11,2,10]pentaoxadiphosphacyclotetradecin-7-yl)-5-fluoro-3,7-dihydro-4H-pyrrolo[2,3-d]pyrimidin-4-one di-triethylamine salt] here?
A: Its activation at 30 µM is 97%.

Q: For `Nc1ncnc2c1ncn2[C@@H]1O[C@@H]2COP(=O)(O)O[C@@H]3[C@H](O)[C@@H](COP(=O)(O)O[C@H]2[C@H]1F)O[C@H]3n1cc(F)c2c(=O)[nH]cnc21` [Example 1a, 7-((5R,7R,8R,12aR,14R,15R,15aR,16R)-14-(6-amino-9H-purin-9-yl)-15-fluoro-2,10,16-trihydroxy-2,10-dioxidooctahydro-12H-5,8-methanofuro[3,2-1][1,3,6,9,11,2,10]pentaoxadiphosphacyclotetradecin-7-yl)-5-fluoro-3,7-dihydro-4H-pyrrolo[2,3-d]pyrimidin-4-one disodium salt], which activation at 30 µM (WT STING; [2]) is on record?
A: The activation at 30 µM was 99%.

Q: With `Nc1ncnc2c1ncn2[C@@H]1O[C@@H]2COP(=O)(O)O[C@@H]3[C@H](O)[C@@H](COP(=O)(S)O[C@H]2[C@H]1F)O[C@H]3n1cc(F)c2c(=O)[nH]cnc21` (stereo partly drawn) [Example 3, 7-((2R,5R,7R,8R,12aR,14R,15R,15aR,16R)-14-(6-amino-9H-purin-9-yl)-15-fluoro-10,16-dihydroxy-2,10-dioxido-2-sulfanyloctahydro-12H-5,8-methanofuro[3,2-1][1,3,6,9,11,2,10]pentaoxadiphosphacyclotetradecin-7-yl)-5-fluoro-3,7-dihydro-4H-pyrrolo[2,3-d]pyrimidin-4-one 1.7 triethylamine salt] as the compound, how does the activation at 30 µM (WT STING; [2]) read?
A: Its activation at 30 µM is 97%.

Q: For `Nc1ncnc2c1ncn2[C@@H]1O[C@@H]2COP(=O)(S)O[C@@H]3[C@H](O)[C@@H](COP(=O)(S)O[C@H]2[C@H]1O)O[C@H]3n1cc(F)c2c(=O)[nH]cnc21` (stereo partly drawn) [Example 5, 7-((5R,7R,8R,12aR,14R,15R,15aS,16R)-14-(6-amino-9H-purin-9-yl)-15,16-dihydroxy-2,10-dioxido-2,10-disulfanyloctahydro-12H-5,8-methanofuro[3,2-1][1,3,6,9,11,2,10]pentaoxadiphosphacyclotetradecin-7-yl)-5-fluoro-3,7-dihydro-4H-pyrrolo[2,3-d]pyrimidin-4-one di-triethylamine salt (Optical Isomer)], which “Human plasma stability” value [1] is on record?
A: The value was less than 0.01 h⁻¹.

Q: And the activation at 30 µM (WT STING; [2])?
A: Its activation at 30 µM is 102%.

Q: What about the EC50 (WT STING) of the same compound?
A: The EC50 was 0.19 µM.

Q: For `Nc1nc2c(ncn2[C@@H]2O[C@@H]3COP(=O)(O)O[C@H]4[C@@H](O)[C@H](c5cnn6c(N)ncnc56)O[C@@H]4COP(=O)(O)O[C@@H]2[C@@H]3O)c(=O)[nH]1` [Example 13, 2-amino-9-((5R,7R,8R,12aR,14S,15S,15aS,16R)-14-(4-aminopyrazolo[1,5-a][1,3,5]triazin-8-yl)-2,10,15,16-tetrahydroxy-2,10-dioxidooctahydro-12H-5,8-methanofuro[3,2-1][1,3,6,9,11,2,10]pentaoxadiphosphacyclotetradecin-7-yl)-1,9-dihydro-6H-purin-6-one di-triethylamine salt], which activation at 30 µM (WT STING) is on record?
A: The activation at 30 µM was 99%.

Q: For `Nc1ncnc2c1ncn2[C@@H]1O[C@@H]2COP(=O)(S)O[C@@H]3[C@H](O)[C@@H](COP(=O)(S)O[C@H]2[C@H]1F)O[C@H]3n1cc(F)c2c(=O)[nH]cnc21` (stereo partly drawn) [Example 14, 7-((2R,5R,7R,8R,10R,12aR,14R,15R,15aR,16R)-14-(6-amino-9H-purin-9-yl)-15-fluoro-16-hydroxy-2,10-dioxido-2,10-disulfanyloctahydro-12H-5,8-methanofuro[3,2-1][1,3,6,9,11,2,10]pentaoxadiphosphacyclotetradecin-7-yl)-5-fluoro-3,7-dihydro-4H-pyrrolo[2,3-d]pyrimidin-4-one disodium salt], which “Human plasma stability” value [1] is on record?
A: Its value is less than 0.01 h⁻¹.

Q: What about the EC50 (WT STING) of the same compound?
A: Its EC50 is 0.13 µM.

Q: What about the anti-tumor effect (B16F10 mouse tumor cells) of the same compound?
A: The anti-tumor effect was “anti-tumor effects were observed”.

Q: And the anti-tumor effect (CT-26 mouse tumor cells)?
A: The anti-tumor effect was “anti-tumor effects were observed”.

Q: With `Nc1ncnc2c1ncn2[C@@H]1O[C@@]23CO[C@@H]1[C@@H]2OP(=O)(O)OC[C@H]1O[C@@H](n2cc(F)c4c(=O)[nH]cnc42)[C@H](OP(=O)(O)OC3)[C@@H]1O` [Example 16, 7-((5R,7R,8R,12aR,14R,15R,15aS,18R)-14-(6-amino-9H-purin-9-yl)-2,10,18-trihydroxy-2,10-dioxidohexahydro-14H-15,12a-(epoxymethano)-5,8-methanofuro[3,2-1][1,3,6,9,11,2,10]pentaoxadiphosphacyclotetradecin-7(12H)-yl)-5-fluoro-3,7-dihydro-4H-pyrrolo[2,3-d]pyrimidin-4-one di-triethylamine salt] as the compound, how does the activation at 30 µM (WT STING; [2]) read?
A: The activation at 30 µM was 114%.

Q: With `Nc1ncnc2c1ncn2[C@@H]1O[C@@]23CO[C@@H]1[C@@H]2OP(=O)(S)OC[C@H]1O[C@@H](n2cc(F)c4c(=O)[nH]cnc42)[C@H](OP(=O)(O)OC3)[C@@H]1O` (stereo partly drawn) [Example 17, 7-((5R,7R,8R,12aR,14R,15R,15aS,18R)-14-(6-amino-9H-purin-9-yl)-10,18-dihydroxy-2,10-dioxido-2-sulfanylhexahydro-14H-15,12a-(epoxymethano)-5,8-methanofuro[3,2-1][1,3,6,9,11,2,10]pentaoxadiphosphacyclotetradecin-7(12H)-yl)-5-fluoro-3,7-dihydro-4H-pyrrolo[2,3-d]pyrimidin-4-one di-trimethylamine salt] as the compound, how does the activation at 30 µM (WT STING) read?
A: The activation at 30 µM was 110%.

Q: Which activation at 30 µM (WT STING) does the source give for `Nc1nc2c(ncn2[C@@H]2O[C@@H]3COP(=O)(O)O[C@@H]4[C@H](O)[C@@H](COP(=O)(O)O[C@H]3[C@H]2F)O[C@H]4n2cc(F)c3c(=O)[nH]cnc32)c(=O)[nH]1` [Example 19, 2-amino-9-((5R,7R,8R,12aR,14R,15R,15aR,16R)-15-fluoro-7-(5-fluoro-4-oxo-3,4-dihydro-7H-pyrrolo[2,3-d]pyrimidin-7-yl)-2,10,16-trihydroxy-2,10-dioxidooctahydro-12H-5,8-methanofuro[3,2-1][1,3,6,9,11,2,10]pentaoxadiphosphacyclotetradecin-14-yl)-1,9-dihydro-6H-purin-6-one di-triethylamine salt] here?
A: The activation at 30 µM was 101%.

Q: Which “Human plasma stability” value [1] does the source give for `Nc1nc2c(ncn2[C@@H]2O[C@@H]3COP(=O)(O)O[C@H]4[C@@H](O)[C@H](n5cnc6c(N)ncnc65)O[C@@H]4COP(=O)(O)O[C@@H]2[C@@H]3O)c(=O)[nH]1` [cGAMP, 2′,3′-cGAMP, reference compound] here?
A: Its value is 1.39 h⁻¹.
